# Laboratory results from patent US12545665B2, “Crystal form of 6-(cyclopropanecarboxamido)-4-((2-methoxy-3-(1-methyl-1H-1,2,4-triazol-3-yl)phenyl)amino)-n-(methyl-d3) pyridazine-3-carboxamide” (Bristol-Myers Squibb Company, priority 2017, dated 2026).
# Experiments:
# Type in all cases: physicochemical
# [1] = Physical stability on storage, characterized by DSC, TGA and PXRD; settings: samples stored for 4 weeks at different conditions of temperature and humidity, TGA, PXRD
# Description: X-ray powder diffraction (PXRD) data were obtained using a Bruker C2 GADDS with Vantec-500 detector. The radiation was Cu Kα (40 KV, 40 mA). The sample-detector distance was […]. Incident optics include Goebel mirror and 0.3 mm collimator. Powder samples were placed in sealed glass capillaries of 1 mm or less in diameter; the capillary was rotated during data collection. Data were collected for 2≤2θ≤35° with a sample exposure time of at least 1000 seconds. The resulting two-dimensional diffraction arcs were integrated to create a traditional 1-dimensional PXRD pattern with a step size of 0.05 degrees 2θ in the range of ˜2 to ˜30 degrees 2θ.
# Differential scanning calorimetry (DSC) experiments were performed in a TA Instruments™ model Q2000. The sample (about 2-6 mg) was weighed in an aluminum pan and recorded accurately recorded to a hundredth of a milligram, and transferred to the DSC. […] Data were collected between room temperature and 300° C. at 10° C./min heating rate. The plot was made with the endothermic peaks pointing down.
# Thermal gravimetric analysis (TGA) experiments were performed in a TA Instruments™ model Q5000. The sample (about 10-30 mg) was placed in a platinum pan previously tared. […] The furnace was purged with nitrogen gas at 100 mL/min. Data were collected between room temperature and 300° C. at 10° C./min heating rate.
# [2] = Moisture-sorption isotherm (VTI)
# Description: Form A of Compound (I) is non-hygroscopic with less than 0.1 weight % gain between 25 to 75% relative humidity at 25° C.
# Moisture-sorption isotherms were collected in a TA Instrument VTI-SA+ Vapor Sorption Analyzer using approximately 10 mg of sample. The sample was dried at 60° C. until the loss rate of 0.0005 wt %/min was obtained for 10 minutes. The sample was tested at 25° C. and 3 or 4, 5, 15, 25, 35, 45, 50, 65, 75, 85, and 95% relative humidity (RH). Equilibration at each relative humidity was reached when the rate of 0.0003 wt %/min for 35 minutes was achieved or a maximum of 600 minutes.
# [3] = Chemical stability (% Assay) of micronized Form A stored at different temperature and humidity conditions
# Description: Samples of micronized Form A of Compound (I) were stored at different conditions of temperature and humidity for 4 weeks. The physical stability, characterized by DSC, TGA, and PXRD, were measured at 2 and 4 weeks.
# [4] = at the tested temperature and humidity conditions
smiles,measurement,setting,value
"[2H]C([2H])([2H])NC(=O)c1nnc(NC(=O)C2CC2)cc1Nc1cccc(-c2ncn(C)n2)c1OC [Form A of Compound (I), 6-(cyclopropanecarboxamido)-4-((2-methoxy-3-(1-methyl-1H-1,2,4-triazol-3-yl)phenyl)amino)-N-(methyl-d3)pyridazine-3-carboxamide]",Change in physical form,[1],No change in the physical form was detected
same,Weight gain,[2]; between 25 to 75% relative humidity at 25° C.,less than 0.1 weight %
same,Hygroscopicity,[2]; moisture sorption isotherm at 25° C.,non-hygroscopic
same,% Assay,"[3]; High Intensity Light/UV, 2 weeks",99.3%
same,% Assay,"[3]; High Intensity Light/UV, 4 weeks",99.2%
same,Impurity profiles,[3]; [4],remain unchanged
same,Physical or chemical degradation,[3]; [4],no significant physical or chemical degradation
same,Change in chemical stability,"[3]; samples of Table 2, stored up to 4 weeks",no measure change in chemical stability
same,% Assay,"[3]; stored at 5° C. (control), 2 weeks",99.2%
same,% Assay,"[3]; stored at 5° C. (control), 4 weeks",99.2%
same,% Assay,"[3]; stored at 25° C./60% relative humidity (closed), 2 weeks",99.2%
same,% Assay,"[3]; stored at 25° C./60% relative humidity (closed), 4 weeks",99.2%
same,% Assay,"[3]; stored at 40° C./75% relative humidity (open), 2 weeks",99.2%
same,% Assay,"[3]; stored at 40° C./75% relative humidity (open), 4 weeks",99.2%
same,% Assay,"[3]; stored at 50° C., 2 weeks",99.2%
same,% Assay,"[3]; stored at 50° C., 4 weeks",99.2%
